This note sets out measurements from US8129396B2, “2-[1H-benzimidazol-2(3H)-ylidene]-2-(pyrimidin-2-yl)acetamides and 2-[benzothiazol-2(3H)-ylidene]-2-(pyrimidin-2-yl)acetamides as kinase inhibitors” (Telik, Inc., priority 2008, dated 2012).

The structures appear in SMILES notation.

Experiment [1] concerns the target T1, Aurora A kinase (Homo sapiens, UniProt O14965).
T1 construct: purchased Upstate Biotech
T1 sequence (O14965 1-403): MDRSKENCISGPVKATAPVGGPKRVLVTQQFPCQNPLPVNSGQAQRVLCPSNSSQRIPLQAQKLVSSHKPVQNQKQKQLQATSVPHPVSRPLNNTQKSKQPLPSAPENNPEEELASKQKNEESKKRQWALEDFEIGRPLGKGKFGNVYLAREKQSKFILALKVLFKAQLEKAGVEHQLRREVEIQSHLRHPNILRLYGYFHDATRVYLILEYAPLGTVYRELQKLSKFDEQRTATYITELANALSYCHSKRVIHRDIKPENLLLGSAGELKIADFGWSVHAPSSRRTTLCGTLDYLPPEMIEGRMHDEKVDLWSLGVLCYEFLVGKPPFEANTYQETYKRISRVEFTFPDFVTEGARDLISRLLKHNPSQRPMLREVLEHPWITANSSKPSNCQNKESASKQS
The experiment is described as follows: Aurora A kinase assay (IMAP fluorescence polarization). The format is biochemical. The following applies: 10 μM ATP; rounded to 1 significant figure; read-out: Aur-A IC50. An outline of the steps:
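Compounds (eight 3-fold dilutions, 2.5% DMSO final) were preincubated 5 min at room temperature with Aurora A kinase in buffer with 1 mM DTT. Reaction with 100 nM fluorescein-PKAtide and 10 μM ATP ran 45 min at room temperature, then was stopped with IMAP binding reagent; fluorescence polarization was read after 30 min.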

Experiment [2] has as its target T2, Aurora B kinase (Homo sapiens, UniProt Q96GD4).
T2 construct: purchased BPS Bioscience
In words: Aurora B kinase assay (IMAP fluorescence polarization). Particulars: 10 μM ATP; rounded to 1 significant figure; read-out: Aur-B IC50. The format is biochemical. An outline of the steps: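 Reaction started with 100 nM fluorescein-labelled PKAtide and 10 μM ATP, run 45 min at room temperature, then stopped with IMAP binding reagent (1:400). After 30 min shaking at room temperature, fluorescence polarization read; run in duplicate with solvent control.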

In experiment [3] the target is T3, VEGFR2 kinase (Homo sapiens, UniProt P35968).
T3 construct: purchased Cell Signaling Technology
In words: VEGFR2 kinase assay. It counts as biochemical. The following applies: 6 μM ATP, 1 mM MnCl2; rounded to 1 significant figure. An outline of the steps:
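VEGFR2 phosphorylates CSKtide with 6 μM ATP and 1 mM MnCl2 for 1 hr, otherwise following the Aurora A kinase protocol. Detection by IMAP fluorescence polarization, binding reagent diluted 1:1200 in 1:1 binding buffer A/B. Run in duplicate with solvent control.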

In experiment [4] the test system is p-H3 in HCT116 cells. In words: Histone phosphorylation (p-H3) assay. The following applies: Homo sapiens, HCT-116; HCT116 cells, 4 hr incubation; read-out: p-H3 IC50. It counts as cell-based. An outline of the steps:
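HCT116 cells (2.5×10^4/well, attached overnight) treated 4 h with 8-point 3-fold compound dilutions at 0.5% DMSO. Lysates dot-blotted onto nitrocellulose and probed for p-H3 with β-actin on the same membrane, fluorescent secondary antibodies, Odyssey scan; duplicate wells.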

In experiment [5] the test system is HCT116 (human colon carcinoma) cells. In words: HCT116 cytotoxicity assay (CellTiter-Glo). Particulars: HCT-116, 72 h, cytotoxicity, three days culture, read-out: HCT116 IC50. It counts as cell-based.
For experiment [6], the system named is HL60 (human promyelocytic leukemia) cells. The experiment is described as follows: HL60 cytotoxicity assay (CellTiter-Glo). The format is cell-based. Particulars: HL-60, 72 h, cytotoxicity, three days culture, read-out: HL60 IC50.
Experiment [7] has as its system HUVEC-2 (human umbilical vein endothelial cells). In words: HUVEC VEGF-dependent proliferation assay (BrdU). Particulars: VEGF (25 ng/mL)-dependent proliferation, read-out: HUVEC IC50. The format is cell-based. An outline of the steps: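 HUVEC-2 cells on gelatin got serially diluted compound (0.5% DMSO final), and VEGF (25 ng/mL) was added 2 hr later. BrdU (10 μM) went in after one day, with labelling for another day. VEGF-dependent proliferation was read by BrdU detection, in triplicate.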

Experiment [8] relates to HL60 (human promyelocytic leukemia) xenograft. In words: HL60 xenograft assay, oral administration. Particulars: for inhibition of tumor growth compared to vehicle: 150 mg/Kg by gavage once/day on days 1-5 and 8-10, measured 1-2 days after last treatment. The format is in vivo, athymic nu/nu mice. As for the experimental part: Male athymic nu/nu mice, 6-8 weeks old (about 20 g), were implanted subcutaneously in the right fore flank with about 1×10^7 cells of the HL60 (human promyelocytic leukemia) line that had been grown in antibiotic-free medium for at least two passages. About 6 days after tumor implantation, when the tumor weight was about 50-250 mg, the mice were assigned to treatment groups. […] […] Tumor growth inhibition was measured 1-2 days after the last day of treatment.

Experiment [9] deals with HCT116 (human colon carcinoma) xenograft. In words: HCT116 xenograft assay, oral administration. The format is in vivo, athymic nu/nu mice. The following applies: for inhibition of tumor growth compared to vehicle: 150 mg/Kg by gavage once/day on days 1-5 and 8-12, measured 9 days after last treatment. As for the experimental part:
Male athymic nu/nu mice, 6-8 weeks old (about 20 g), were implanted subcutaneously in the right fore flank with about 1×10^7 cells of the HCT116 (human colon carcinoma) line that had been grown in antibiotic-free medium for at least two passages. About 14-21 days after tumor transplantation, when the tumor weight was about 50-250 mg, the mice were assigned to treatment groups. […] Groups of mice were treated with compounds 39A, 40A, 60A, 75A, 95A, and 117A at 150 mg/Kg by gavage once/day on days 1-5 and 8-12 from the start of treatment, with vehicle control. Tumor growth inhibition was measured 9 days after the last day of treatment.

Setting [10] is: dissolved at 10 mg/mL in 0.1M sodium acetate pH5.

T3 sequence (P35968 20-1356): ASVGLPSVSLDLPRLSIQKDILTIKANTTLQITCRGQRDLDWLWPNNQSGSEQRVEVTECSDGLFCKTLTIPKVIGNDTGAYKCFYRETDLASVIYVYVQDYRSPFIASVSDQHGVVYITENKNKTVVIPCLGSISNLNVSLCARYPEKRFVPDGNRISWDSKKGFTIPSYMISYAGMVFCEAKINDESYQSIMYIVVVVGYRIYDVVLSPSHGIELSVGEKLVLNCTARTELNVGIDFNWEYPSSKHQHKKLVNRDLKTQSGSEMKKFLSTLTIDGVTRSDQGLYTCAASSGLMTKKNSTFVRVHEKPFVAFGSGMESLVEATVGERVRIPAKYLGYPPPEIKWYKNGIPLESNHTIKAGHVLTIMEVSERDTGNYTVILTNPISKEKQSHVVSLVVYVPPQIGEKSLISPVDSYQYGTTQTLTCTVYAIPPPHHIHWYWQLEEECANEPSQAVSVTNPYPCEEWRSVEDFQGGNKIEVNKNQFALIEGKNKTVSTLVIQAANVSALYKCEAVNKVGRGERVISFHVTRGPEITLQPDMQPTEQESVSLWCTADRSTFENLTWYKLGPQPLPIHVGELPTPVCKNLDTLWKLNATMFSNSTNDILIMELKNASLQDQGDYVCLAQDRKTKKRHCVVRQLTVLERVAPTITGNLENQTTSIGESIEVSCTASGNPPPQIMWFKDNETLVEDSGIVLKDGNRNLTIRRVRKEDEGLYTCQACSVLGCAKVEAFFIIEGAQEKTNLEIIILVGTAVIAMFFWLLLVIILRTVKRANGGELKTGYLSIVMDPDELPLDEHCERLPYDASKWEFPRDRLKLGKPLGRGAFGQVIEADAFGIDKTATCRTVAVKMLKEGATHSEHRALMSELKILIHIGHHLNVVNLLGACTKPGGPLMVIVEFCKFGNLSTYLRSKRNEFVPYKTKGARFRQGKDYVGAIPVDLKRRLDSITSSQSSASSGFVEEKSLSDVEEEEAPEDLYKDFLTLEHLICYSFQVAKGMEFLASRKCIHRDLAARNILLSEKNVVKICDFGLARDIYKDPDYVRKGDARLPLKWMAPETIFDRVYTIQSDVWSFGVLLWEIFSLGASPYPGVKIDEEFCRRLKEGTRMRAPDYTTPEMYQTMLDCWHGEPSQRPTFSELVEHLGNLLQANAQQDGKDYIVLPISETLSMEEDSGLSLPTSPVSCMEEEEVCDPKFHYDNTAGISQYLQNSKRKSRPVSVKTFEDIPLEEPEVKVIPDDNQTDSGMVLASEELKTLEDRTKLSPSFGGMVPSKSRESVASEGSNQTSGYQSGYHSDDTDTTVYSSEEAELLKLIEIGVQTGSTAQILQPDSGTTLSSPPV
T2 sequence (Q96GD4 whole entry): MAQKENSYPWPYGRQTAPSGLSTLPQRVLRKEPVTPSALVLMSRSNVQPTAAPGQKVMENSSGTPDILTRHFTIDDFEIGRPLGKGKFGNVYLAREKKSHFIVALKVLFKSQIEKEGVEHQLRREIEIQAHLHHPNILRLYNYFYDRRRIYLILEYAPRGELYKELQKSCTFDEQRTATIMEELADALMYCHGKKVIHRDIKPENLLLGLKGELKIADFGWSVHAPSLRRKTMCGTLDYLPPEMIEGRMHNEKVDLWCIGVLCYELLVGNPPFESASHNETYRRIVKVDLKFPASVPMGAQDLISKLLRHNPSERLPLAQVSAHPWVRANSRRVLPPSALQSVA

As to `CCN(CCCN1CCOCC1)C(=O)c1ccc2c(c1)N/C(=C(/C(N)=O)c1nccc(C(F)(F)F)n1)N2` [Compound 41A], the half-maximal inhibitory concentration (IC50) in experiment [1] was 6 nM; in experiment [2] it was 4 nM; in experiment [3] it was 4 nM; in experiment [4] it was 100 nM; in [5], 700 nM; in experiment [6], 100 nM. For the same molecule, the IC50 in experiment [7] is 200 nM. Further, the “inhibition of tumor growth compared to vehicle” value (“inhibition … compared to vehicle” for short) in experiment [8] turned out to be 81%.

With `CCN(CC)CC(=O)N(CC)c1ccc2c(c1)N/C(=C(/C(N)=O)c1nccc(C(F)(F)F)n1)N2` [Compound 139A], the IC50 was 20 nM in experiment [1]; 2 nM in [2]; 30 nM in [3]; 90 nM in [4]; 30 nM in experiment [5]; 40 nM in experiment [6]. Moreover, the “tumor inhibition relative to vehicle” value is 65% in experiment [8] (dissolved at 4 mg/mL in 0.1M sodium acetate pH5, dosing at 40 mg/mL) and 46% in experiment [9] (dissolved at 4 mg/mL in 0.1M sodium acetate pH5).

For `CCN(CC)CC(=O)Nc1ccc2c(c1)N/C(=C(/C(N)=O)c1nccc(C(F)(F)F)n1)N2` [Compound 75A], the IC50 in [1] was 60 nM; in [2], 10 nM; in experiment [3], 50 nM; in [4], 400 nM; in experiment [5], 1000 nM; in [7] it was 200 nM. Besides, the “inhibition … compared to vehicle” value in [8] is recorded as 72%; in experiment [9], 60%.

Turning to `NC(=O)/C(=C1\Nc2ccc(CCN3CCOCC3)cc2S1)c1nccc(C(F)(F)F)n1` [Compound 101A], the concentration for half-maximal inhibition (IC50) in [1] was 7 nM; in experiment [2], 9 nM; in experiment [3], 20 nM; in [4], 1000 nM; in experiment [5], 1000 nM; in experiment [6], 2000 nM. The IC50 in [7] worked out at 50 nM. Further, in experiment [8], the “inhibition … compared to vehicle” value is 38%.

Regarding `CN1CCCC[C@H]1C(=O)Nc1ccc2c(c1)N/C(=C(/C(N)=O)c1nccc(C(F)(F)F)n1)N2` [Compound 142A], the IC50 in [1] stood at 2 nM; in [2] it was 4 nM; in experiment [3], 10 nM; in experiment [4] it was 300 nM; in [5], 300 nM; in [6], 200 nM. In [7], the IC50 is 90 nM. Also, the “tumor inhibition relative to vehicle” value in experiment [8] (setting [10]) came to 89%.

Consider `NC(=O)/C(=C1\Nc2ccc(C(=O)N3CCNCC3)cc2N1)c1nccc(C(F)(F)F)n1` [Compound 60A], for which the IC50 was determined as 10 nM in [1]; 7 nM in experiment [2]; 5 nM in experiment [3]; 200 nM in experiment [4]; 200 nM in experiment [5]; 80 nM in experiment [7]. In experiment [9], the “inhibition … compared to vehicle” value is recorded as 37%.

As to `NC(=O)C(=C1Nc2ccc(C(=O)NCCCN3CCOCC3)cc2S1)c1nccc(C(F)(F)F)n1` (single isomer, unassigned) [Compound 40A, 2-(6-{[3-(4-morpholinyl)propyl]aminocarbonyl}-benzothiazol-2(3H)-ylidene)-2-(4-trifluoromethylpyrimidin-2-yl)acetamide], the IC50 in [1] worked out at 3 nM; in experiment [2], 7 nM; in experiment [3], 3 nM; in experiment [4] it was 500 nM; in [5], 200 nM; in experiment [6] it was 7000 nM. The IC50 in experiment [7] is 30 nM. Further, the “inhibition … compared to vehicle” value in experiment [9] was found to be 18%.

As to `CCN(C(=O)C1CCN(C)CC1)c1ccc2c(c1)N/C(=C(/C(N)=O)c1nccc(C(F)(F)F)n1)N2` [Compound 141A], the IC50 turned out to be 4 nM in experiment [1]; 6 nM in experiment [2]; 40 nM in experiment [3]; 300 nM in experiment [4]; 900 nM in experiment [5]; 1000 nM in [6]. In experiment [7], the IC50 worked out at 20 nM. For the same molecule, the “tumor inhibition relative to vehicle” value in experiment [8] (setting [10]) is 49%.

For the molecule `NC(=O)/C(=C1\Nc2ccc(NC(=O)CCCN3CCOCC3)cc2N1)c1nccc(C(F)(F)F)n1` [Compound 85A], the IC50 in experiment [1] was determined as 5 nM; in experiment [2] it was 4 nM; in experiment [3], 20 nM; in experiment [4], 50 nM; in [5], 300 nM; in experiment [6] it was 60 nM. The 50% inhibitory concentration (IC50) in [7] is 20 nM. Also, the “inhibition … compared to vehicle” value in experiment [8] worked out at 45%.

With `CN1CCCC[C@@H]1C(=O)Nc1ccc2c(c1)N/C(=C(/C(N)=O)c1nccc(C(F)(F)F)n1)N2` [Compound 143A], the IC50 in [1] came out at 4 nM; in [2] it was 6 nM; in experiment [3], 30 nM; in experiment [4] it was 200 nM; in [5], 300 nM; in experiment [6], 300 nM. Besides, the IC50 in experiment [7] was determined as 80 nM. Moreover, in [8] (setting [10]), the “tumor inhibition relative to vehicle” value stood at 65%.

For `NC(=O)C(=C1Nc2ccc(OCCn3ccnc3)cc2S1)c1nccc(C(F)(F)F)n1` (single isomer, unassigned) [Compound 117A, 2-{6-[2-(1H-imidazol-1-yl)ethoxy]benzothiazol-2(3H)-ylidene}-2-(4-trifluoromethylpyrimidin-2-yl)acetamide], the IC50 in [1] came out at 10 nM; in experiment [2] it was 8 nM; in experiment [3], 20 nM; in [4], 300 nM; in experiment [5] it was 800 nM; in experiment [7], 60 nM. For the same molecule, in experiment [9], the “inhibition … compared to vehicle” value came out at 42%.

Regarding `CN1CCC[C@H]1C(=O)Nc1ccc2c(c1)N/C(=C(/C(N)=O)c1nccc(C(F)(F)F)n1)N2` [Compound 77A], the IC50 amounted to 8 nM in experiment [1]; 7 nM in experiment [2]; 9 nM in experiment [3]; 100 nM in experiment [4]; 200 nM in experiment [5]; 300 nM in experiment [6]. In [7], the half-inhibitory concentration (IC50) was determined as 90 nM. Besides, the “inhibition … compared to vehicle” value in [8] is given as 75%.

In the case of `CN1CCC[C@H]1C(=O)Nc1ccc2c(c1)S/C(=C(/C(N)=O)c1nccc(C(F)(F)F)n1)N2` [Compound 78A], the half-inhibitory concentration (IC50) in [1] came to 60 nM; in [2], 40 nM; in experiment [3], 50 nM; in experiment [4], 600 nM; in experiment [5], 2000 nM; in [6] it was 1000 nM. Also, in experiment [7], the IC50 worked out at 400 nM.
